Reference: US8143236B2, “Chemoprotective methods” (BioNumerik Pharmaceuticals, Inc., priority 2006, dated 2012)

Columns and labels:
[1] = Randomized double-blind placebo-controlled clinical study with paclitaxel: hypersensitivity Adverse Events by infusion time and concentration (FIG. 1); assay type: in vivo, human; details: for proportion of patients with at least one hypersensitivity Adverse Event: entire treated population: paclitaxel plus either placebo or drug (1:1)
Experimental: FIG. 1 illustrates a comparison of the number of hypersensitivity Adverse Events between groups of patients in whom 2,2′-dithio-bis-ethane sulfonate or a placebo was infused over (1) 30 minutes, (2) 30 and 45 minutes, or (3) 45 minutes. The chemotherapeutic agent administered was paclitaxel. In this Figure, n=#, equals the number of patients.
New methods of administration of agents such as 2,2′-dithio-bis-ethane sulfonate, pharmaceutically-acceptable salts, and/or an analog thereof, have now been discovered in connection with a human clinical study comprising a randomized, double-blind, placebo-controlled study with a 1:1 randomization. Initial blinded study results support the ability of compounds such as 2,2′-dithio-bis-ethane sulfonate to markedly enhance overall safety, decrease overall Adverse Events, decrease hypersensitivity-based Adverse Events, and increase the time of Adverse Event onset, while maintaining at least the same therapeutic indices (e.g. dose level administered in a prescribed specific time schedule, including duration of administration and frequency), and reduction, prevention, mitigation, and/or delay of toxicities associated with the administration of chemotherapeutic agents.
This reduction in the proportion of patients experiencing hypersensitivity reactions overall represents a medically significant difference in such adverse reactions. It represents a reduction in the risk of an observed potentially serious and life-threatening Adverse Event by approximately 29% in the entire study population (i.e., both placebo and 2,2′-dithio-bis-ethane sulfonate populations).
FIG. 1 illustrates a comparison of the number of hypersensitivity Adverse Events between groups of patients in whom 2,2′-dithio-bis-ethane sulfonate or a placebo was infused over (1) 30 minutes, (2) 30 minutes and 45 minutes, or (3) 45 minutes. In addition, the total number of hypersensitivity Adverse Events, the mean time to the first hypersensitivity Adverse Event, and a variety of the types of hypersensitivity Adverse Events were also shown. […] This reduction in the proportion of patients experiencing hypersensitivity Adverse Events overall represents a reduction in the risk of an observed potentially serious and life-threatening Adverse Event by approximately 29% in the entire study population (i.e., both placebo and disodium 2,2′-dithio-bis-ethane sulfonate populations).

[2] = tested on: paclitaxel-induced thermoparesthesia; assay: Paclitaxel-induced thermoparesthesia model; assay type: in vivo, rats
[3] = tested on: paclitaxel-induced decreases in NCV; assay: Paclitaxel-induced decrease in nerve conduction velocity (NCV); assay type: in vivo; details: rats; paclitaxel 6 mg/kg i.v. 5 times every other day; 1,000 mg/kg i.v. immediately after paclitaxel
[4] = tested on: sciatic and tibial nerves; assay: Histopathological abnormalities of sciatic and tibial nerves caused by paclitaxel; assay type: in vivo; details: paclitaxel 30 mg/kg i.v. every other day (3 doses); 2,000 mg/kg i.v. immediately after paclitaxel
[5] = tested on: decreases in NCV by cisplatin; assay: Cisplatin-induced decrease in nerve conduction velocity (NCV); assay type: in vivo; details: rats, cisplatin 2 mg/kg i.p. twice a week for 6 weeks, 1,000 mg/kg i.v. immediately before cisplatin
Experimental: Effects of the Formula (I) compound, Tavocept™ (dimesna; disodium 2,2′-dithio-bis-ethane sulfonate), on decreases in nerve conduction velocity (NCV) induced by cisplatin (2 mg/kg) administered by i.p. injection twice a week for 6 consecutive weeks were evaluated in rats.

[6] = Japan Phase III Clinical Trial, NSCLC patients receiving paclitaxel and cisplatin; assay type: in vivo, human
Experimental: (§1) The Japan Phase III Clinical Trial was conducted as a double-blind study because peripheral neuropathy is diagnosed based on subjective symptoms evaluated through clinical interviews, lab tests, and the like. Accordingly, evaluations by both physicians and patients are highly important. […] A placebo was used as control since there is no established therapy or drug for preventing peripheral neuropathy. Because the severity of peripheral neuropathy is evaluated based on patients' reports (i.e., subjective symptoms), the Patient Neurotoxicity Questionnaire (PNQ©) (also known as the Peripheral Neuropathy Questionnaire) was used in primary evaluation. The CIPN-20 questionnaire and the National Cancer Institute-Common Toxicity Criteria (NCI-CTC) were used in secondary evaluation. The incidence and severity of adverse reactions, time to their onset, etc. and the like, were compared between patients treated with Tavocept™ and those given a placebo using the aforementioned methods.
(§2) The Primary Endpoint of the Japan Phase III Clinical Trial described in the present invention was specifically designed to test the hypothesis of whether chemotherapy-induced intermittent peripheral neuropathy would occur. The utilization of physical examination, laboratory tests, and highly detailed patient evaluation, especially utilizing the Patient Neurotoxicity Questionnaire (PNQ©), also known as the Peripheral Neuropathy Questionnaire, was responsible for the identification and characterization of this novel intermittent form of chemotherapy-induced peripheral neuropathy. The results illustrated in FIG. 3 indicate that intermittent peripheral neuropathy was specifically identified and measured in the Japan Phase III Clinical Trial. […] Additionally, the results illustrated in FIG. 4 and FIG. 5 also support the finding that the Formula (I) compound, Tavocept™, can mitigate and/or prevent intermittent peripheral neuropathy. FIG. 4 provides data supporting the merit of utilizing the Patient Neurotoxicity Questionnaire (PNQ©), also known as the Peripheral Neuropathy Questionnaire, and the Generalized Estimating Equation (GEE) statistical method to evaluate intermittent and cumulative peripheral neuropathy.

[7] = tested on: chemotherapy-induced peripheral neuropathy; assay: as above; assay type: in vivo, human; details: NSCLC; paclitaxel/Tavocept/cisplatin vs paclitaxel/saline placebo/cisplatin
Experimental: as §1, §2

[8] = tested on: tubulin; details: in vitro; paclitaxel 6 μM; cited from earlier work
[9] = after intravenous administration; intracellular glutathione as a cofactor; cited from earlier work
[10] = in vivo; cited from earlier work

SMILES: O=S(=O)([O-])CCSSCCS(=O)(=O)[O-].[Na+].[Na+] [Tavocept™, disodium 2,2′-dithio-bis-ethane sulfonate]
- proportion of patients with at least one hypersensitivity Adverse Event ([1]; 100 mg/mL over 45 minutes): approximately 30%
- proportion of patients with at least one hypersensitivity Adverse Event ([1]; 200 mg/mL over 30 minutes): approximately 42%
- reduction in the overall proportion of patients experiencing hypersensitivity reactions ([1]; 45 min 100 mg/mL vs 30 min 200 mg/mL, absolute difference): approximately 12%
- reduction in hypersensitivity Adverse Events in the drug treatment population ([1]; 45 min 100 mg/mL vs 30 min 200 mg/mL, assumes no placebo effect): ≤ 57%
- reduction in the risk of hypersensitivity Adverse Event in the entire study population ([1]; 45 min 100 mg/mL vs 30 min 200 mg/mL, placebo and drug populations together): approximately 29%
- inhibition rates of thermoparesthesia caused by paclitaxel ([2]; paclitaxel 12 mg/kg i.p. once a week for 5 weeks, 2,000 mg/kg i.v. immediately after paclitaxel): 19.2-34.1%
- maximum inhibition rate of paclitaxel-induced thermoparesthesia ([2]; rats, paclitaxel 6 mg/kg i.v. 5 times every other day, 1,000 mg/kg): 41.7%
- inhibition of paclitaxel-induced thermoparesthesia ([2]; rats, paclitaxel 6 mg/kg i.v. 5 times every other day, 1,000 mg/kg i.v. immediately after paclitaxel): 27.5-59.2%
- maximum inhibition rate of paclitaxel-induced thermoparesthesia ([2]; rats, paclitaxel 6 mg/kg i.v. 5 times every other day, 2,000 mg/kg): 41.5%
- inhibition of paclitaxel-induced decreases in NCV [3]: 92.2%
- increases in the incidence of histopathological abnormalities of the sciatic and tibial nerves [4]: inhibited
- inhibition rate of decreases in NCV by cisplatin ([5]; 5 weeks after starting cisplatin): 53.6%
- inhibition rate of decreases in NCV by cisplatin ([5]; 6 weeks after starting cisplatin): 64.7%
- survival of patients with NSCLC ([6]; Tavocept and chemotherapy): medically important increase in survival
- survival time of patients with adenocarcinoma ([6]; Tavocept and chemotherapy): medically important increase in survival time
- chemotherapy-induced anemia, nausea/vomiting, fatigue, and kidney damage ([6]; clinical trial population): medically important reductions
- hematological function (hemoglobin, hematocrit, erythrocyte levels) ([6]; patients with non-small cell lung carcinoma and adenocarcinoma): maintenance or stimulation of hematological function
- reduction in severe (Grade D or E) intermittent or cumulative peripheral neuropathy (FIG. 5) [7]: ~50%
- concentration at which tubulin polymerization induced by paclitaxel is inhibited [8]: 6 mM
- uptake and metabolism [9]: rapidly taken up in the kidney and metabolized into mesna

SMILES: N.N.[Cl][Pt][Cl] [cisplatin]
- cumulative dose above which cisplatin-induced neuropathy usually occurs [10]: exceeds 300 mg/m^2
